Paper PMC4978465 (Nature, 2015)

Tests used:
BxGH99 = biological target: T1, BxGH99 (Bacteroides xylanisolvens, UniProt D6D1V7); assay: X-ray crystal structure; type: binding; conditions: crystal soak about 10 mM
T1 sequence (D6D1V7 13-380): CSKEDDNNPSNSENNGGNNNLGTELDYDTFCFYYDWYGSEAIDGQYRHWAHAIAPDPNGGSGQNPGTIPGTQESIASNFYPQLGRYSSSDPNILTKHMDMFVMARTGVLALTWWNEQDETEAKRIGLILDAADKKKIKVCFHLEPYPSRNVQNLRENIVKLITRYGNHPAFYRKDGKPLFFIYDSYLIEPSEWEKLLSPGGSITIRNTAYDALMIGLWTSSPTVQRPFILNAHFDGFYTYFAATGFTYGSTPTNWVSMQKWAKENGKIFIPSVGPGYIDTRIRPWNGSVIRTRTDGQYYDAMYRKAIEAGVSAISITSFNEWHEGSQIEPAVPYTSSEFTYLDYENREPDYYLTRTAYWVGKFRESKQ

BT3775 = biological target: T2, BT3775 (Bacteroides thetaiotaomicron, UniProt Q8A191); assay: HPAEC, MALDI-TOF, linkage analysis; type: biochemical; conditions: 10 mM MnCl2, pH 7.5, 37 °C
T2 sequence (Q8A191 1-224): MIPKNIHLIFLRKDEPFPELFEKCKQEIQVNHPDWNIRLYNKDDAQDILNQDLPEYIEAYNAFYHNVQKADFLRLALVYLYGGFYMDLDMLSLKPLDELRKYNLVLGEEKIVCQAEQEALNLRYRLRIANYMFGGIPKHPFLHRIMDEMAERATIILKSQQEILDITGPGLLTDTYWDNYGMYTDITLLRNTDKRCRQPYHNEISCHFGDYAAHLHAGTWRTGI

OC[C@H]1CNC[C@@H](O[C@H]2O[C@H](CO)[C@@H](O)[C@H](O)[C@@H]2O)[C@@H]1O [Man-IFG]
X-ray crystal structure (BxGH99; ternary complex with alpha-1,2-mannobiose): ternary with Man-IFG and α-1,2-mannobiose, was achieved by soaking native BxGH99 crystals

OC[C@H]1OC(O)[C@@H](O)[C@@H](O)[C@@H]1O (stereo partly shown) [mannose]
HPAEC, MALDI-TOF, linkage analysis (BT3775; donor GDP-mannose): mannobiose produced by BT3775 from mannose

Nc1nc2c(ncn2[C@@H]2O[C@H](COP(=O)(O)OP(=O)(O)O[C@H]3O[C@H](CO)[C@@H](O)[C@H](O)[C@@H]3O)[C@@H](O)[C@H]2O)c(=O)[nH]1 [GDP-Mannose]
HPAEC, MALDI-TOF, linkage analysis (BT3775; acceptor mannose): using mannose as an acceptor and GDP-α-Man as the donor

OC[C@H]1O[C@H](O[C@@H]2C(O)O[C@H](CO)[C@@H](O)[C@@H]2O)[C@@H](O)[C@@H](O)[C@@H]1O (stereo partly drawn) [α-1,2-mannobiose]
X-ray crystal structure (BxGH99; ternary complex with Man-IFG): ternary with Man-IFG and α-1,2-mannobiose, was achieved by soaking native BxGH99 crystals
